Data published in ChEMBL document CHEMBL1201862, “PubChem BioAssay data set” (2004).
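Five compound concentrations were applied to cells in 96-well plates for 48 hours; endpoints were derived by simple linear interpolation of the resulting dose-response curve. GI50 marks 50% less growth.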 Activity calls are given as the source filed them. Cut-off read from the data, not from the text of the source: active = GI50 up to about 1.1 µM and inactive = higher.

Key:
Test in all cases: NCI-60 cell line screen, 48 h
MDA-MB-231 = test system: MDA-MB-231
UO-31 = test system: UO-31
MOLT-4 = test system: MOLT-4
SW-620 = test system: SW-620
M14 = test system: M14
UACC-257 = test system: UACC-257
HT-29 = test system: HT-29
SF-295 = test system: SF-295
A549 = test system: A549
786-0 = test system: 786-0
OVCAR-5 = test system: OVCAR-5
U-251 = test system: U-251
ACHN = test system: ACHN
MCF7 = test system: MCF7
SR = test system: SR
SK-MEL-2 = test system: SK-MEL-2
KM12 = test system: KM12
IGROV-1 = test system: IGROV-1
T47D = test system: T47D
NCI-H226 = test system: NCI-H226

Measured: GI50

Brc1ccc(/C(N=N/C(=N\Sc2ccccc2)c2ccc(Br)cc2)=N/Sc2ccccc2)cc1
inactive: MDA-MB-231 > 100 µM | UO-31 > 100 µM | MOLT-4 > 100 µM | SW-620 > 100 µM | M14 > 100 µM | UACC-257 > 100 µM | HT-29 > 100 µM | SF-295 > 100 µM | A549 > 100 µM | 786-0 > 100 µM | OVCAR-5 > 100 µM | U-251 > 100 µM | ACHN > 61.1 µM | MCF7 > 100 µM | SR > 86.9 µM | SK-MEL-2 > 100 µM | KM12 > 62.1 µM | IGROV-1 > 100 µM | T47D > 100 µM | NCI-H226 > 100 µM

C=C1C(=O)OC2CC(C)C(C(O)CC(C)O)=CCC12 (stereo not given)
inactive: MDA-MB-231 17.8 µM | UO-31 16.2 µM | MOLT-4 14 µM | SW-620 10.4 µM | M14 15.2 µM | UACC-257 12.9 µM | HT-29 13.6 µM | SF-295 41.2 µM | A549 25.9 µM | 786-0 13.7 µM | OVCAR-5 15 µM | U-251 16.3 µM | ACHN 4.39 µM | MCF7 13.9 µM | SR 8.13 µM | SK-MEL-2 16.3 µM | KM12 18.6 µM | IGROV-1 16.8 µM | T47D 7.08 µM | NCI-H226 26.1 µM

CO[C@@H]1[C@@H](OC2OC(C)C(OC3CC(C)(O)C(OC(=O)CC(C)C)C(C)O3)C(N(C)C)C2O)[C@@H](CC=O)C[C@@H](C)C(=O)/C=C/C2O[C@H]2C[C@@H](C)OC(=O)C[C@H]1OC(C)=O (stereo not given in full)
inactive: MDA-MB-231 24.8 µM | UO-31 20.7 µM | MOLT-4 9.57 µM | SW-620 17.5 µM | M14 16.1 µM | UACC-257 17.2 µM | HT-29 12.3 µM | SF-295 24.7 µM | A549 32 µM | 786-0 20 µM | OVCAR-5 17.1 µM | U-251 16.4 µM | ACHN 18.7 µM | MCF7 16.3 µM | SR 11.3 µM | SK-MEL-2 18.8 µM | KM12 17.3 µM | IGROV-1 10.8 µM | T47D 18.7 µM | NCI-H226 13 µM

CCOC(=O)C(Cc1cc(OC)c(CC(C(=O)OCC)C(=O)OCC)cc1OC)C(=O)OCC
inactive: MDA-MB-231 44.9 µM | UO-31 44 µM | MOLT-4 > 100 µM | SW-620 > 100 µM | M14 > 100 µM | UACC-257 > 100 µM | HT-29 > 100 µM | SF-295 > 92.7 µM | A549 > 100 µM | 786-0 61.5 µM | OVCAR-5 > 100 µM | U-251 > 66.4 µM | ACHN > 100 µM | MCF7 > 100 µM | SR > 100 µM | SK-MEL-2 > 100 µM | KM12 > 100 µM | IGROV-1 > 100 µM | T47D > 100 µM | NCI-H226 > 91.4 µM

O=C(Nc1ccc2ccccc2c1)c1cc2cc(CCl)ccc2oc1=O
inactive: MDA-MB-231 49 µM | UO-31 > 100 µM | MOLT-4 > 100 µM | SW-620 > 100 µM | M14 > 100 µM | UACC-257 > 100 µM | HT-29 > 100 µM | SF-295 33.3 µM | A549 > 100 µM | 786-0 39.4 µM | OVCAR-5 > 100 µM | U-251 30.8 µM | ACHN > 100 µM | MCF7 38.5 µM | SR > 100 µM | SK-MEL-2 24 µM | KM12 > 100 µM | IGROV-1 > 100 µM | T47D > 100 µM | NCI-H226 57.5 µM

CCc1cc2c(cc1O)CC[C@@H]1[C@@H]2CC[C@]2(C)[C@@H](O)CC[C@@H]12
inactive: MDA-MB-231 7.93 µM | UO-31 9.08 µM | MOLT-4 5 µM | SW-620 4.16 µM | M14 6.49 µM | UACC-257 8.02 µM | HT-29 15 µM | SF-295 3.91 µM | A549 8.05 µM | 786-0 5.21 µM | OVCAR-5 20.3 µM | U-251 4.76 µM | ACHN 8.81 µM | MCF7 3.63 µM | SR 3.08 µM | SK-MEL-2 9.82 µM | KM12 6.19 µM | IGROV-1 11.2 µM | T47D 7.48 µM | NCI-H226 12.2 µM

O=C1CSC(c2cccc(Cl)c2)N1c1ccc(-c2ccc(-n3c(-c4ccccc4)nc4ccccc4c3=O)cc2)cc1 (stereo not given)
inactive: MDA-MB-231 50.6 µM | UO-31 21.6 µM | MOLT-4 20.1 µM | SW-620 > 100 µM | M14 53.6 µM | UACC-257 80.5 µM | HT-29 38.9 µM | SF-295 51.8 µM | A549 54.2 µM | 786-0 43.6 µM | OVCAR-5 64.6 µM | U-251 52.1 µM | ACHN 45.8 µM | MCF7 30.8 µM | SR 18.9 µM | SK-MEL-2 25.2 µM | KM12 22.3 µM | IGROV-1 77.4 µM | T47D 24.3 µM | NCI-H226 67 µM

CC1=CCC[C@@H]2[C@@](C)(Cc3cc(O)ccc3O)[C@H](C)CC[C@@]12C
inactive: MDA-MB-231 11.9 µM | UO-31 5.33 µM | MOLT-4 3.48 µM | SW-620 6.52 µM | M14 4.94 µM | UACC-257 11.5 µM | HT-29 17.7 µM | SF-295 7.28 µM | A549 4.94 µM | 786-0 6.49 µM | OVCAR-5 13.4 µM | U-251 3.89 µM | ACHN 6.25 µM | MCF7 4.97 µM | SR 2.38 µM | SK-MEL-2 14.5 µM | KM12 4.54 µM | IGROV-1 4.76 µM | T47D 5.38 µM | NCI-H226 16.2 µM

C=C1C(=O)C23CC1C[C@H](OC(C)=O)[C@H]2C1(C)C(OC(C)=O)C[C@H](O)C(C)(C)[C@H]1C(=O)[C@@H]3OC(C)=O (stereo not given in full)
inactive: MDA-MB-231 5.7 µM | UO-31 4.93 µM | MOLT-4 1.21 µM | SW-620 1.71 µM | M14 2.94 µM | UACC-257 2.43 µM | HT-29 4.49 µM | SF-295 17.9 µM | A549 17.9 µM | 786-0 3.28 µM | OVCAR-5 9.51 µM | U-251 15 µM | ACHN 4.98 µM | MCF7 3.93 µM | SR 2.47 µM | SK-MEL-2 12.3 µM | KM12 10.9 µM | IGROV-1 12.4 µM | T47D 2.72 µM | NCI-H226 23.2 µM

Cn1c(=O)c2c(nc3n(Cc4ccccc4)c(=O)c(Br)cn23)n(C)c1=O
inactive: MDA-MB-231 > 100 µM | UO-31 > 100 µM | MOLT-4 > 100 µM | SW-620 > 100 µM | M14 > 100 µM | UACC-257 > 100 µM | HT-29 > 100 µM | SF-295 > 100 µM | A549 > 100 µM | 786-0 > 100 µM | OVCAR-5 > 100 µM | U-251 > 100 µM | ACHN > 100 µM | MCF7 > 100 µM | SR 1.71 µM | SK-MEL-2 > 100 µM | KM12 > 100 µM | IGROV-1 > 100 µM | T47D > 100 µM | NCI-H226 > 100 µM
